In patent US6462205B1, “Method of preparing benzofurandione oxime derivatives” (Bayer Aktiengesellscahft, priority 1999, dated 2002):
Read-outs that look alike come from different tables or passages of the source.

Assay: log p of the isomers of 3-methoximino-2-oxo-2,3-dihydrobenzofuran
Format: physicochemical
Conditions: product of Example 5, value per isomer

Row | Compound | logP (read-out: log p) | logP
1 | CON=C1C(=O)Oc2ccccc21 (single isomer, unassigned; isomer 3) [E isomer, 3-Methoximino-2-oxo-2,3-dihydrobenzofuran] | 2.2 | 
2 | CON=C1C(=O)Oc2ccccc21 (single isomer, unassigned; isomer 3) [Z isomer, 3-Methoximino-2-oxo-2,3-dihydrobenzofuran] |  | 2.14
